Data as given in patent publication US11141403B2, “Benzimidazoles and indoles as taro inhibitors” (MERCK SHARP & DOHME CORP., priority 2015, dated 2021).
“And” between values parts separate entries of the source, which are not always exact repeats. Identical values can stand only once. Like-named read-outs stand apart in the source and are kept apart here.

Experiments:
MRSA COL (MB5393) = experiment: TarO Inhibitor/β-Lactam Synergy Assay; type: cell-based, Staphylococcus aureus; settings: 20 hours; for IC95: TarO inhibitor alone, OD600, 95% growth inhibition, read-out: MITC95 TarO inhibitor alone, Bacteria: SA_MB5393; for MITC95 TarO inhibitor + 4 μg/mL IPM; Bacteria: SA_MB5393: in combination with 4 μg/mL imipenem; for MITC95 TarO inhibitor + 4 μg/mL IPM; Bacteria: SA_MB5393 / MITC95 TarO inhibitor + 8 μg/mL DCX; Bacteria: SA_MB5393: OD600; for MITC95 TarO inhibitor + 8 μg/mL DCX; Bacteria: SA_MB5393: in combination with 8 μg/mL dicloxacillin
In short: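 TarO inhibitors titrated 2-fold from 200 μM (2% DMSO) against MRSA COL, 5×10^5 CFU in CAMHB, with β-lactam fixed at clinical breakpoint (imipenem 4 μg/ml or dicloxacillin 8 μg/ml). Incubated 20 h at 37 °C without shaking; relative growth read as OD600.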

MRSA COL (MB 5393) = experiment: In Vivo Murine Systemic Infection Model; design: species or system Staphylococcus aureus; settings: for Bacteria recovered: tid, neutropenic Balb/C mice, 24 h post challenge; for Fold reduction vs. vehicle alone: kidney cfu
Method: The murine systemic infection model determines the therapeutic efficacy of TarO inhibitor/β-lactam combinations in vivo. Staphylococci bacteria can cause a systemic infection and establish a robust growth in the kidneys of the infected animal. MRSA COL can establish an infection even in the presence of β-lactam antibiotic due MRSA COL resistance to β-lactam antibiotics.
Female Balb/C mice were rendered neutropenic (immune suppressed) with a single 250 mg/kg intraperitoneal (ip) dose of cyclophosphamide on […]. MRSA COL (MB 5393) was grown for 16 hours in trypticase soy broth (TSB) at 37° C. and 0.5 mL of diluted culture (˜1×10^4 cfu) was administered intraperitoneal (IP). The TarO inhibitor and β-lactam antibiotic were administered alone or in combination by subcutaneous route at 2, 5 and 8 hr. post challenge (sc, tid). Twenty four hours post challenge mice were euthanized and the kidneys harvested, weighed, homogenized and plated to measure the total number of bacteria recovered as colony forming unit (CFU) remaining in compound treated groups as compared to vehicle (saline) or β-lactam antibiotic alone groups (statistical analyses was determined by one way ANOVA).

TarO = TarO (Staphylococcus aureus, UniProt Q2G060); experiment: TarO Biochemical Enzymatic Assay (LC-MS end point, C55-PP-GlcNAc (LIPID III) production); settings: TarO membrane preparation derived from MRSA COL; read-out: TARO inhibitor IC50
From the text: The pathway for the biosynthesis of wall teichoic acid (WTA) in Staphylococci involves a series of biochemical enzymatic reactions by proteins encoded by the tar genes (teichoic acid ribitol). The first enzymatic step in the synthesis of WTA is initiated by TarO, N-acetylglucosaminyl-1-P transferase, which catalyzes the transfer of N-acetyl-glucosamine-phosphate (GlcNAc-P) to an undecaprenyl phosphate (C55-P), also known as bactoprenyl phosphate, to generate C55-PP-GlcNAc (LIPID III).
The TarO biochemical enzymatic assay is a liquid chromatography-mass spectroscopy (LC-MS) based end point assay that measures C55-P-P-GlcNAc (LIPID III) production. The TarO biochemical enzymatic assay was performed in a 384-well microtiter plate (Labcyte) with a reaction volume of 20 μl. […] The linearity of C55-PP-GlcNAc concentration versus mass spectrometric signal (AC55-PP-GlcNAc/A15C-C55-PP-GlcNAc) was determined with purified C55-PP-GlcNAc. The IC50 values were calculated using the nonlinear regression analysis (sigmoidal dose response fit allowing for a variable slope) of percent inhibition data with minimum and maximum values set to 0 and 100 percent.

TarO, sequence (Q2G060 1-351): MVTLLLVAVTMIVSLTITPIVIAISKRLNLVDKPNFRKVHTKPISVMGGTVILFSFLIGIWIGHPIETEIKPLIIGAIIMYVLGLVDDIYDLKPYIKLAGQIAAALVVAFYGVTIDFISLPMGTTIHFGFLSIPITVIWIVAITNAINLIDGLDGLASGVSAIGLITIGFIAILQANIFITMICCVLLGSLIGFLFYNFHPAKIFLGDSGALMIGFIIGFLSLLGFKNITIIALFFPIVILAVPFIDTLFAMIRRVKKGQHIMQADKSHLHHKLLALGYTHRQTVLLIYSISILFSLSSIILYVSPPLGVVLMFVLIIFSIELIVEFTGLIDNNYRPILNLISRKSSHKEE

CC1(C)[C@@H]2CC[C@@]1(C)[C@H](NC(=O)CCn1c(C3CCCCC3)nc3ccccc31)C2 [Example 37, 3-(2-cyclohexyl-1H-benzimidazol-1-yl)-N-[(1R,2R,4R)-1,7,7-trimethylbicyclo[2.2.1]hept-2-yl]propanamide]
IC95 (MRSA COL (MB5393); Staphylococcus aureus): > 200 µM | MITC95 TarO inhibitor + 4 μg/mL IPM; Bacteria: SA_MB5393 (MRSA COL (MB5393)): 1.69 µM | MITC95 TarO inhibitor + 8 μg/mL DCX; Bacteria: SA_MB5393 (MRSA COL (MB5393)): 12.50 µM | Bacteria recovered (MRSA COL (MB 5393); Example 37 (100 mg/kg) + imipenem (5 mg/kg) sc): 2.6×10^4 cfu/g kidney | Fold reduction vs. vehicle alone (MRSA COL (MB 5393); Example 37 (100 mg/kg) + imipenem (5 mg/kg)): 730 and 730.8 | Bacteria recovered (MRSA COL (MB 5393); Example 37 alone (100 mg/kg) sc): 1.5×10^7 cfu/g kidney | Fold reduction vs. vehicle alone (MRSA COL (MB 5393); Example 37 alone (100 mg/kg)): 1.3

CCN(C(=O)CCn1c(C2CCCN(C(=O)OC(C)(C)C)C2)nc2ccccc21)C1CCCCC1 (centres unmarked) [Example 54]
IC95 (MRSA COL (MB5393)): 100 µM | MITC95 TarO inhibitor + 4 μg/mL IPM; Bacteria: SA_MB5393 (MRSA COL (MB5393)): 1.56 µM | MITC95 TarO inhibitor + 8 μg/mL DCX; Bacteria: SA_MB5393 (MRSA COL (MB5393)): 12.50 µM | IC50 (TarO): 0.45 µM
